Read-outs that look alike come from different tables or passages of the source.
Columns and labels:
[1] = Safety assessments (adverse events, laboratory, vital signs, ECG); format: in vivo
Description: Safety evaluations included analysis of AEs, laboratory variables (hematology, clinical chemistry, and urinalysis), vital signs, electrocardiogram, and a physical examination. AEs were coded using the Medical Dictionary for Regulatory Activities Version 24.0. […] Treatment‐emergent AEs (TEAEs) were summarized by frequency, severity, and relatedness to the study drug. TEAE frequency (the number of TEAEs and the number of participants experiencing a TEAE) was tabulated by system organ class and preferred term. In the per‐participant analyses, a participant having the same event more than once was counted only once.

[2] = test system: aldehyde oxidase and cytochrome P450 (CYP) 2C8, CYP3A, CYP2C9, CYP2C19; set-up: method as in PMID 38967715, PMID 39412085; details: in vitro, minor contributions from CYP3A; cited from earlier work
[3] = set-up: method as in PMID 37219686; details: cited from earlier work
[4] = test system: CYP2C8, CYP2C9, CYP2C19, CYP3A, CYP1A2, CYP2B6; set-up: method as in PMID 38967715, PMID 39412085; details: at clinically relevant concentrations, cited from earlier work
relapsed/refractory pLGG = test system: relapsed/refractory pLGG; set-up: method as in PMID 39808502, PMID 37978284; details: cited from earlier work
[5] = Relative bioavailability and food-effect pharmacokinetics (Part 2, 3-period crossover); format: in vivo, human
Method: In Part 2 of the study, 12 participants were randomized to 1 of 3 sequences (T[fast]S[fast]T[fed], S[fast]T[fed]T[fast], and T[fed]T[fast]S[fast]) (Figure S1B). In each treatment period, tovorafenib was administered on Day 1 as a tablet under fasted (T[fast]), as PfOS under fasted (S[fast]), or as a tablet after a high‐fat meal (T[fed]). Tovorafenib was administered in the morning after an overnight fast of 10 hours or more. For treatment groups T[fast] and S[fast], tovorafenib was given under fasted conditions (ie, no breakfast), while for the T[fed] group, it was administered 30 minutes after the start of a high‐fat meal. A total of 240 mL of water was administered with each tovorafenib tablet. For the PfOS, immediately after administration, the dosing vessel was rinsed with water, and participants were required to consume the rinse solution and additional water up to a total volume of 240 mL (including the dosing volume and volume used to rinse the dosing vessel). If needed, additional water in 50‐mL aliquots was provided and recorded but was not classed as a protocol deviation. Participants were required to fast for 4 hours or more after single‐dose administration of the tovorafenib tablet. The composition of the high‐fat meal consisted of 800‐1000 calories, of which approximately 54% of calories were from fat. To be eligible for dosing, participants were required to consume at least 90% of the meal provided. Intake of fluids was prohibited 1 hour before dosing until 1 hour after dosing, except for fluid consumed with breakfast before dosing and water for tovorafenib tablet intake. Blood samples were collected at regular intervals (see Blood Collection and Processing for PK Analysis in the Pharmacokinetic Assessments section for more details) for PK analysis from before dosing to 120 hours after dosing. […]
Plasma concentrations of tovorafenib were determined by a validated liquid chromatography with tandem mass spectrometry–based method with a lower limit of quantification of 0.5 ng/mL. […]

[6] = test system: breast cancer resistance protein; set-up: method as in PMID 38967715, PMID 39412085; details: at clinically relevant concentrations; cited from earlier work
[7] = set-up: method as in PMID 38967715, PMID 39412085; details: cited from earlier work
[8] = 20-280 mg every 2 days and 400-800 mg every week

With `C[C@@H](NC(=O)c1ncnc(N)c1Cl)c1ncc(C(=O)Nc2cc(C(F)(F)F)c(Cl)cn2)s1` [tovorafenib, 6‐amino‐5‐chloro‐N‐[(1R)‐1‐[5‐[[[5chloro‐4‐(trifluoromethyl)‐2‐pyridinyl]amino]carbonyl]‐2‐thiazolyl]ethyl]‐4‐pyrimidinecarboxamide] the “Severity of all AEs” value ([1]; 100 mg dose regimens) was “mild”, the “Myalgia, events” value ([1]; 300 mg) was 10 events and the “Nonserious musculoskeletal AEs, mild” value ([1]; 300 mg) was 5 participants. For the same compound, the “Nonserious musculoskeletal AEs, moderate” value ([1]; 300 mg) was 3 participants, the “Nonserious musculoskeletal AEs, severe” value ([1]; 300 mg) was 4 participants and the “Moderate AEs” value ([1]; 300 mg dose regimens) was 7. For the same compound, the “Participants with nonserious musculoskeletal AEs” value ([1]; 300 mg, Period 1) was 12 participants, the “Myalgia, participants reporting” value ([1]; 300 mg, [83.3%]) was 10 participants and the “TEAEs reported during Part 1” value ([1]; Part 1, sip and spit of PfOS formulations, n = 12) was “no TEAEs”. For the same compound, the “Serious AEs or AEs leading to study drug discontinuation” value ([1]; Part 2) was “no serious AEs or AEs leading to study drug discontinuation”, the “TEAEs related to tovorafenib” value ([1]; Part 2, all regimens) was 60 and the “Total TEAEs” value ([1]; Part 2, all regimens) was 71. The “Participants reporting TEAEs” value ([1]; Part 2, all regimens, N = 12) was 12 participants, the “Laboratory, vital sign, electrocardiogram, physical examination findings” value ([1]; either part of the study) was “no clinically significant abnormal” and the Metabolizing enzymes [2] was “primarily metabolized by aldehyde oxidase and cytochrome P450 (CYP) 2C8”. The “Dose proportionality of peak plasma concentration and exposure” value [3, 8] was “roughly dose‐proportional”, the half-life [3, 8] was “approximately 70 hours” and the Median tmax ([3]; after dosing) was 3 h. The “Mean t1/2” value ([3]; patients, 600 mg, multiple administrations) was “approximately 70 hours”, the “Effect on CYP1A2 and CYP2B6” value [4] was “induces” and the “Effect on CYP2C8, CYP2C9, CYP2C19, and CYP3A” value ([4]; in vitro) was “both inhibits and induces”. For the same compound, the Overall response rate (relapsed/refractory pLGG; 76 evaluable patients, 420 mg/m^2 once weekly (600 mg maximum), independent radiology review, RAPNO low-grade glioma criteria) was 51%, the “Median duration of response” value (relapsed/refractory pLGG; FIREFLY-1 arm 1, 420 mg/m^2 once weekly) was 13.8 months and the half-life ([5]; human, plasma, oral, range over regimens, 100 and 300 mg, read-out: Mean t1/2 values from the 3 treatment regimens) was 62 to 89.5 h. The “AUC0‐last at 300 mg relative to 100 mg” value ([5]; single doses) was roughly 2.5 fold, the “Cmax at 300 mg relative to 100 mg” value ([5]; single doses) was “approximately 2.3 fold” and the “Effect on breast cancer resistance protein” value [6] was “inhibits”. The “Tovorafenib share of total plasma radioactivity exposure” value ([7]; single 100-mg oral dose of [14C]-tovorafenib) was 78.7%, the “Dose recovered in the urine” value ([7]; single oral radiolabeled dose) was 27% and the “Dose recovered unchanged in the feces” value ([7]; single oral radiolabeled dose) was 8.6%. The “Dose recovered unchanged in the urine” value ([7]; single oral radiolabeled dose) was 0.2% and the “Total radiolabeled dose recovered in the feces” value ([7]; single oral radiolabeled dose) was 65%.
